Data set [1] in a line: Compound cytotoxicity, XTT-based colorimetric assay. Format: cell-based. Conditions: human, uninfected MT2 cells, day 4, XTT. The gist of the method: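 Run under the antiviral-assay protocol but without virus. Viability was read on day 4 and CC50 values were derived from the readout.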
On the technique in general: Formazan colour is commonly taken as a measure of viable cells.

Data set [2] deals with recombinant NL4-3 virus (nef section replaced with Renilla luciferase gene) in MT-2 cells. The experiment in a line: HIV cell culture assay (antiviral activity, luciferase readout). The data set is classed as cell-based. Conditions: Renilla, NL43, MT-2 cells infected for 4-5 days with recombinant NL4-3 Renilla luciferase virus, serial dilutions of compound. The gist of the method:
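EC50 was derived by median-effect curve fitting of luciferase activity. The signal comes from MT-2 cells infected for 4–5 days with 293T-produced NL4-3 reporter virus, nef partly replaced by Renilla luciferase, in the presence of serially diluted compound.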

Drawing on patent US11505543B2, “4-oxo-3,4-dihydroquinazoline compounds as inhibitors of human immunodeficiency virus replication” (VIIV HEALTHCARE UK (NO.5) LIMITED, priority 2018, dated 2022), this text covers CC50 and EC50 for 13 molecules.

The term CC50 denotes the concentration giving 50% cytotoxicity. High values mean lower toxicity to the cells, low ones greater toxicity to the cells. What is called EC50 is the concentration needed to bring the measured effect to its halfway point.

`CCS(=O)(=O)c1cccc(-c2ccc3c(=O)n(-c4ccc(Cl)c5c(NS(C)(=O)=O)nn(C)c45)c([C@H](Cc4cc(F)cc(F)c4)NC(=O)Cn4nc(C(F)F)c5c4C(F)(F)[C@@H]4C[C@H]54)nc3c2)c1` (atropisomer, axis not shown; (aR)) [Example 121, N-((S)-1-(3-(4-chloro-1-methyl-3-(methylsulfonamido)-1H-indazol-7-yl)-7-(3-(ethylsulfonyl)phenyl)-4-oxo-3,4-dihydroquinazolin-2-yl)-2-(3,5-difluorophenyl)ethyl)-2-((3bS,4aR)-3-(difluoromethyl)-5,5-difluoro-3b,4,4a,5-tetrahydro-1H-cyclopropa[3,4]cyclopenta[1,2-c]pyrazol-1-yl)acetamide]: the CC50 at 4 day in data set [1] was over 500 nM. The EC50 in data set [2] amounted to 0.11 nM.
In data set [1], `Cn1nc(NS(C)(=O)=O)c2c(Cl)ccc(-n3c([C@H](Cc4cc(F)cc(F)c4)NC(=O)Cn4nc(C(F)F)c5c4C(F)(F)[C@@H]4C[C@H]54)nc4cc(-c5c(Cl)cccc5Cl)ccc4c3=O)c21` (atropisomer, axis not shown; (aR)) [Example 104, N-((S)-1-(3-(4-chloro-1-methyl-3-(methylsulfonamido)-1H-indazol-7-yl)-7-(2,6-dichlorophenyl)-4-oxo-3,4-dihydroquinazolin-2-yl)-2-(3,5-difluorophenyl)ethyl)-2-((3bS,4aR)-3-(difluoromethyl)-5,5-difluoro-3b,4,4a,5-tetrahydro-1H-cyclopropa[3,4]cyclopenta[1,2-c]pyrazol-1-yl)acetamide] came in with a CC50 at 4 day of over 1000 nM. In addition, the EC50 in data set [2] amounted to 0.68 nM.
In turn, `CS(=O)(=O)c1ccccc1-c1ccc2c(=O)n(-c3ccc(Cl)c4c(NS(=O)(=O)C5CC5)nn(CC(F)F)c34)c([C@H](Cc3cc(F)cc(F)c3)NC(=O)Cn3nc(C(F)F)c4c3C(F)(F)[C@@H]3C[C@H]43)nc2c1` [Example 160, N-((S)-1-(3-(4-chloro-3-(cyclopropanesulfonamido)-1-(2,2-difluoroethyl)-1H-indazol-7-yl)-7-(2-(methylsulfonyl)phenyl)-4-oxo-3,4-dihydroquinazolin-2-yl)-2-(3,5-difluorophenyl)ethyl)-2-((3bS,4aR)-3-(difluoromethyl)-5,5-difluoro-3b,4,4a,5-tetrahydro-1H-cyclopropa[3,4]cyclopenta[1,2-c]pyrazol-1-yl)acetamide] gave a CC50 at 4 day in data set [1] of over 500 nM. In data set [2], the 50% effective concentration (EC50) worked out at 0.082 nM.
`Cc1cc(-c2ccc3c(=O)n(-c4ccc(Cl)c5c(NS(C)(=O)=O)nn(C)c45)c([C@H](Cc4cc(F)cc(F)c4)NC(=O)Cn4nc(C(F)F)c5c4C(F)(F)[C@@H]4C[C@H]54)nc3c2)ccc1Cl` (atropisomer, axis not shown; (aR)) [Example 31, N-((S)-1-(3-(4-chloro-1-methyl-3-(methylsulfonamido)-1H-indazol-7-yl)-7-(4-chloro-3-methylphenyl)-4-oxo-3,4-dihydroquinazolin-2-yl)-2-(3,5-difluorophenyl)ethyl)-2-((3bS,4aR)-3-(difluoromethyl)-5,5-difluoro-3b,4,4a,5-tetrahydro-1H-cyclopropa[3,4]cyclopenta[1,2-c]pyrazol-1-yl)acetamide]: the CC50 at 4 day in data set [1] was over 1000 nM. Besides, the EC50 in data set [2] worked out at 4.7 nM.
In the case of `Cn1nc(NS(C)(=O)=O)c2c(Cl)ccc(-n3c([C@H](Cc4cc(F)cc(F)c4)NC(=O)Cn4nc(C(F)F)c5c4C(F)(F)[C@@H]4C[C@H]54)nc4cc(-c5ccccn5)ccc4c3=O)c21` (atropisomer, axis not shown; (aR)) [Example 87, N-((S)-1-(3-(4-chloro-1-methyl-3-(methylsulfonamido)-1H-indazol-7-yl)-4-oxo-7-(pyridin-2-yl)-3,4-dihydroquinazolin-2-yl)-2-(3,5-difluorophenyl)ethyl)-2-((3bS,4aR)-3-(difluoromethyl)-5,5-difluoro-3b,4,4a,5-tetrahydro-1H-cyclopropa[3,4]cyclopenta[1,2-c]pyrazol-1-yl)acetamide], in data set [1], the CC50 at 4 day was over 1000 nM. Besides, the EC50 in data set [2] amounted to 0.09 nM.
`CC(C)n1ccc(CC(=O)N[C@@H](Cc2cc(F)cc(F)c2)c2nc3cc(-c4ccccc4F)ccc3c(=O)n2-c2ccc(Cl)c3c(NS(C)(=O)=O)nn(C)c23)n1` [Example 155, (S)-N-(1-(3-(4-chloro-1-methyl-3-(methylsulfonamido)-1H-indazol-7-yl)-7-(2-fluorophenyl)-4-oxo-3,4-dihydroquinazolin-2-yl)-2-(3,5-difluorophenyl)ethyl)-2-(1-isopropyl-1H-pyrazol-3-yl)acetamide] yielded a CC50 at 4 day in data set [1] of over 1000 nM. Also, the EC50 in data set [2] came to 0.76 nM.
In turn, `O=C(Cn1ccc(C2CC2)n1)N[C@@H](Cc1cc(F)cc(F)c1)c1nc2cc(-c3c(F)cccc3F)ccc2c(=O)n1-c1ccc(S(=O)(=O)N2CCOCC2)cc1` [Example 37, (S)-2-(3-cyclopropyl-1H-pyrazol-1-yl)-N-(2-(3,5-difluorophenyl)-1-(7-(2,6-difluorophenyl)-3-(4-(morpholinosulfonyl)phenyl)-4-oxo-3,4-dihydroquinazolin-2-yl)ethyl)acetamide] displayed a CC50 at 4 day in data set [1] of over 1000 nM. Also, in data set [2], the EC50 worked out at 8.8 nM.
`CC(C)S(=O)(=O)c1ccccc1-c1ccc2c(=O)n(-c3ccc(Cl)c4c(NS(C)(=O)=O)nn(CC(F)F)c34)c([C@H](Cc3cc(F)cc(F)c3)NC(=O)Cn3nc(C(F)F)c4c3C(F)(F)[C@@H]3C[C@H]43)nc2c1` [Example 178, N-((S)-1-(3-(4-chloro-1-(2,2-difluoroethyl)-3-(methylsulfonamido)-1H-indazol-7-yl)-7-(2-(isopropylsulfonyl)phenyl)-4-oxo-3,4-dihydroquinazolin-2-yl)-2-(3,5-difluorophenyl)ethyl)-2-((3bS,4aR)-3-(difluoromethyl)-5,5-difluoro-3b,4,4a,5-tetrahydro-1H-cyclopropa[3,4]cyclopenta[1,2-c]pyrazol-1-yl)acetamide]: the CC50 at 4 day in data set [1] was over 500 nM. Besides, the EC50 in data set [2] turned out to be 0.065 nM.
Molecule `Cn1nc(NS(C)(=O)=O)c2c(Cl)ccc(-n3c([C@H](Cc4cc(F)cc(F)c4)NC(=O)Cn4nc(C(F)F)c5c4C(F)(F)[C@@H]4C[C@H]54)nc4cc(-c5cc(F)ccc5CO)ccc4c3=O)c21` [Example 180, N-((S)-1-(3-(4-chloro-1-methyl-3-(methylsulfonamido)-1H-indazol-7-yl)-7-(5-fluoro-2-(hydroxymethyl)phenyl)-4-oxo-3,4-dihydroquinazolin-2-yl)-2-(3,5-difluorophenyl)ethyl)-2-((3bS,4aR)-3-(difluoromethyl)-5,5-difluoro-3b,4,4a,5-tetrahydro-1H-cyclopropa[3,4]cyclopenta[1,2-c]pyrazol-1-yl)acetamide] registered a CC50 at 4 day in data set [1] of over 500 nM. For the same molecule, the EC50 in data set [2] was 0.2 nM.
For the molecule `Cn1nc(NS(C)(=O)=O)c2c(Cl)ccc(-n3c([C@H](Cc4cc(F)cc(F)c4)NC(=O)Cn4nc(C(F)F)c5c4C(F)(F)[C@@H]4C[C@H]54)nc4cc(-c5ccc(F)c(CO)c5)ccc4c3=O)c21` (atropisomer, axis not shown; (aR)) [Example 98, N-((S)-1-(3-(4-chloro-1-methyl-3-(methylsulfonamido)-1H-indazol-7-yl)-7-(4-fluoro-3-(hydroxymethyl)phenyl)-4-oxo-3,4-dihydroquinazolin-2-yl)-2-(3,5-difluorophenyl)ethyl)-2-((3bS,4aR)-3-(difluoromethyl)-5,5-difluoro-3b,4,4a,5-tetrahydro-1H-cyclopropa[3,4]cyclopenta[1,2-c]pyrazol-1-yl)acetamide], the CC50 at 4 day in data set [1] was over 1000 nM. In addition, the EC50 in data set [2] was 0.39 nM.
`COc1cc(C)nc(-c2ccc3c(=O)n(-c4ccc(Cl)c5c(NS(C)(=O)=O)nn(C)c45)c([C@H](Cc4cc(F)cc(F)c4)NC(=O)Cn4nc(C(F)F)c5c4C(F)(F)[C@@H]4C[C@H]54)nc3c2)n1` (atropisomer, axis not shown; (aR)) [Example 131, N-((S)-1-(3-(4-chloro-1-methyl-3-(methylsulfonamido)-1H-indazol-7-yl)-7-(4-methoxy-6-methylpyrimidin-2-yl)-4-oxo-3,4-dihydroquinazolin-2-yl)-2-(3,5-difluorophenyl)ethyl)-2-((3bS,4aR)-3-(difluoromethyl)-5,5-difluoro-3b,4,4a,5-tetrahydro-1H-cyclopropa[3,4]cyclopenta[1,2-c]pyrazol-1-yl)acetamide] yielded a CC50 at 4 day in data set [1] of over 500 nM. Moreover, the EC50 in data set [2] was determined as 0.11 nM.
The matching figures for `Cn1nc(NS(C)(=O)=O)c2c(Cl)ccc(-n3c([C@H](Cc4cc(F)cc(F)c4)NC(=O)Cn4nc(C(F)F)c5c4C(F)(F)[C@@H]4C[C@H]54)nc4cc(-c5ccc(F)c(C#N)c5)ccc4c3=O)c21` (atropisomer, axis not shown; (aR)) [Example 97, N-((S)-1-(3-(4-chloro-1-methyl-3-(methylsulfonamido)-1H-indazol-7-yl)-7-(3-cyano-4-fluorophenyl)-4-oxo-3,4-dihydroquinazolin-2-yl)-2-(3,5-difluorophenyl)ethyl)-2-((3bS,4aR)-3-(difluoromethyl)-5,5-difluoro-3b,4,4a,5-tetrahydro-1H-cyclopropa[3,4]cyclopenta[1,2-c]pyrazol-1-yl)acetamide]: over 1000 nM and 0.4 nM.
In data set [1], `O=C(Cn1nc(C(F)F)c2c1C(F)(F)[C@@H]1C[C@H]21)N[C@@H](Cc1cc(F)cc(F)c1)c1nc2cc(-c3ccncc3)ccc2c(=O)n1-c1ccc(S(=O)(=O)N2CCOCC2)cc1` [Example 69, 2-((3bS,4aR)-3-(difluoromethyl)-5,5-difluoro-3b,4,4a,5-tetrahydro-1H-cyclopropa[3,4]cyclopenta[1,2-c]pyrazol-1-yl)-N-((S)-2-(3,5-difluorophenyl)-1-(3-(4-(morpholinosulfonyl)phenyl)-4-oxo-7-(pyridin-4-yl)-3,4-dihydroquinazolin-2-yl)ethyl)acetamide] displayed a CC50 at 4 day of over 1000 nM. The EC50 in data set [2] was 1 nM.
